Assay results reported in patent US8206722B2, “Somatostatin receptor antagonists and glucose control or hypoglycemia” (The Governing Council of the University of Toronto, priority 2007, dated 2012).
One block for each substance: values may come before it.

Experiments:
SSTR-2 = SSTR-2 (Homo sapiens, UniProt P30874); settings: antagonist at SSTR-2, cited from earlier work
non-diabetic rats = settings: cited from earlier work
[1] = tested on: non-diabetic and STZ-diabetic rats; assay: Insulin-induced hypoglycemic glucose clamp with SSTR antagonist infusion in non-diabetic and STZ-diabetic rats; type: in vivo, rat
Procedure: FIG. 1 indicates levels of plasma glucose levels in four groups of rats during the 1-h SSTR antagonist/saline pretreatment and 3-h hypoglycemic clamp experiment. […] A similar glycemic profile is observed in FIG. 1B when another dose of insulin and SSTR antagonist (DC-41-33) were tested (5 U/kg and 3000 nmol/kg/h, respectively).
Non-diabetic and STZ-diabetic rats were injected with insulin (10 U/kg and 5 U/kg). These doses yielded reproducible responses of plasma glucose (FIG. 1). In diabetic rats, plasma glucose is elevated approximately 3- to 4-fold before hypoglycemia is induced. A subcutaneous injection of insulin was given immediately after the sample was taken at time 0 in all groups of rats to induce hypoglycemia. Plasma glucose levels dropped to the same target hypoglycemia (2.75±0.25 mM) in both non-diabetic and diabetic rats. […] This technique of glucose clamping is a well-established method in diabetes research which allows precise comparison between different groups at a specific glycemic level.
This technique is referred to as the “glucose clamp” and is achieved by intravenously infusing glucose whenever necessary.

isolated islets = isolated islets and perifused isolated islets; reversed dose-dependently by added somatostatin; cited from earlier work
[2] = tested on: isolated, perfused pancreas; settings: perfused pancreas of non-diabetic rats; cited from earlier work

Chain of SSTR-2 (P30874 whole entry, species assumed): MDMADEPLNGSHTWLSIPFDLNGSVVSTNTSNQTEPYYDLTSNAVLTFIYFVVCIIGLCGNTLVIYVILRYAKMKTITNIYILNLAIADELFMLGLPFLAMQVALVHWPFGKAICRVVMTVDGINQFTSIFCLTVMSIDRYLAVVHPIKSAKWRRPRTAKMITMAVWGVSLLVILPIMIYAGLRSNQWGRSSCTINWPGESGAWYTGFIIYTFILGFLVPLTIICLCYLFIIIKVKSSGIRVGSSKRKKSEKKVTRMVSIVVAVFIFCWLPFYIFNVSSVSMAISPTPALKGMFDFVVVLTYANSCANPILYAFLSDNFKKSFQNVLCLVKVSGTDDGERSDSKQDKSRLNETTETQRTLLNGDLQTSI

Substance: H-Cpa-cyclo[Cys-Pal-DTrp-Lys-Ile-Cys]-Nal-NH2 [PRL-2915]
Affinity (nM), Units pKi (SSTR-2): 7.9 pKi

plasma epinephrine levels during basal infusion of antagonist ([1]; basal infusion before insulin, antagonist 1500 nmol/kg/h, FIG. 7): did not affect plasma epinephrine levels
growth hormone (GH) levels ([1]; diabetic rats, regardless of hypoglycemia, insulin 5 U/kg, antagonist 3000 nmol/kg/h, FIG. 9): did not affect GH levels
plasma norepinephrine during basal infusion and insulin-induced hypoglycemia ([1]; insulin 10 U/kg, antagonist 1500 nmol/kg/h, FIG. 8): no effect
Substance: H-Fpa-cyclo[DCys-Pal-DTrp-Lys-Tle-Cys]-Nal-NH2 [DC-41-33]
IC50 (SSTR-2; Units column prints pIC50, read-out: Affinity (nM), Units pIC50 (converted)): 27.4 nM
reversal of inhibition by GIP, GIP-(1-30)NH2 and GLP-1(7-36)NH2 of pentagastrin-stimulated gastric acid secretion (non-diabetic rats): able to reverse the inhibitory effect
peak glucagon response to hypoglycemia, increase ([1]; diabetic rats, insulin 5 U/kg, antagonist 3000 nmol/kg/h, FIG. 3): ~7 fold
corticosterone response to hypoglycemia ([1]; diabetic rats, insulin 5 U/kg, antagonist 3000 nmol/kg/h, FIG. 5): fully normalized
plasma glucagon before insulin and throughout hypoglycemia ([1]; diabetic rats, insulin 10 U/kg, antagonist 1500 nmol/kg/h, FIG. 2): glucagon was increased
increase in plasma epinephrine levels (AUC) in response to hypoglycemia ([1]; diabetic rats, insulin 10 U/kg, antagonist 1500 nmol/kg/h, FIG. 7): 4 fold
glucose infusion requirement during 3 h hypoglycemic clamp ([1]; non-diabetic and diabetic rats versus untreated controls, insulin 5 U/kg, antagonist 3000 nmol/kg/h, FIG. 6): less glucose infusion was necessary
corticosterone response to hypoglycemia ([1]; non-diabetic and diabetic rats, insulin 10 U/kg, antagonist 1500 nmol/kg/h, FIG. 4): augmented to the same extent
corticosterone response to hypoglycemia ([1]; non-diabetic and diabetic rats, insulin 10 U/kg, antagonist 1500 nmol/kg/h, FIG. 4, listed as SSTR2 antagonist): increases in the corticosterone response
increase in plasma glucagon induced by insulin, with versus without antagonist ([1]; non-diabetic rats, insulin 10 U/kg, antagonist 1500 nmol/kg/h, FIG. 2): 3 fold
glucagon secretion to an arginine stimulus (isolated islets): dose-dependently increases glucagon secretion
glucagon secretion [2]: enhances glucagon secretion
insulin secretion [2]: without affecting insulin secretion

Substance: H-Cpa-cyclo[DCys-Tyr-DTrp-Lys-Thr-Cys]-Nal-NH2 (XCYWKTCX; Cpa, Nal, D-residues, cyclic disulfide, C-terminal amide; Synthetic - PRL-2970)
Affinity (nM), Units pKi (SSTR-2): 7.6 pKi

Substance: HFIRWF [AC-178,335, Ac-His-Phe-Ile-Arg-Trp-Phe-NH2]
Affinity (nM), Units pKi (SSTR-2): 6.8 pKi
